Reference: patent US12304970B2, “Nuclear localization signals, compositions formed therefrom, and methods of use thereof for delivery of cargo to the nucleus” (Yale University, priority 2018, dated 2025)
Substitutions are numbered along the chain they refer to. “Also recorded” adds a separate entry of the source. Where two headings read alike, the source gives them in different places.

B1: variant 10: humanized 3E10 variant, SEQ ID NOS: 14, 22, and 32 (protein)
chain 1: EVQLVESGGGLVQPGGSLRLSCAASGFTFSNYGMHWVRQAPGKGLEWVSYISSSSSTIYYADSVKGRFTISRDNAKNSLYLQMNSLRAEDTAVYYCARRGLLLDYWGQGTTVTVSS
chain 2: DIQMTQSPSSLSASVGDRVTITCRASKSVSTSSYSYMHWYQQKPGKAPKLLIKYASYLESGVPSRFSGSGSGTDFTLTISSLQPEDFATYYCQHSREFPWTFGQGTKVEIK
chain 3: DIQMTQSPSSLSASVGDRVTITCRASKSVSTSSYSYMHWYQQKPGKAPKLLIKYASYLESGVPSRFSGSGSGTDFTLTISSLQPEDFATYYCQHSREFPWTFGQGTKVEIKRADAAPGGGGSGGGGSGGGGSEVQLVESGGGLVQPGGSLRLSCAASGFTFSNYGMHWVRQAPGKGLEWVSYISSSSSTIYYADSVKGRFTISRDNAKNSLYLQMNSLRAEDTAVYYCARRGLLLDYWGQGTTVTVSSASTKGPSVFPLAPLESSGSDIQMTQSPSSLSASVGDRVTITCRASKSVSTSSYSYMHWYQQKPGKAPKLLIKYASYLESGVPSRFSGSGSGTDFTLTISSLQPEDFATYYCQHSREFPWTFGQGTKVEIKRADAAPGGGGSGGGGSGGGGSEVQLVESGGGLVQPGGSLRLSCAASGFTFSNYGMHWVRQAPGKGLEWVSYISSSSSTIYYADSVKGRFTISRDNAKNSLYLQMNSLRAEDTAVYYCARRGLLLDYWGQGTTVTVSS
B2: variant 13: humanized 3E10 variant, SEQ ID NOS: 17, 23, and 35, expressed in CHO cells (protein)
chain 1: B1 chain 1 with S54G
chain 2: B1 chain 2 with V15L, V19A, S28T, K46Q, A47P, F87A, Q104G
chain 3: DIQMTQSPSSLSASLGDRATITCRASKTVSTSSYSYMHWYQQKPGQPPKLLIKYASYLESGVPSRFSGSGSGTDFTLTISSLQPEDAATYYCQHSREFPWTFGGGTKVEIKRADAAPGGGGSGGGGSGGGGSEVQLVESGGGLVQPGGSLRLSCAASGFTFSNYGMHWVRQAPGKGLEWVSYISSGSSTIYYADSVKGRFTISRDNAKNSLYLQMNSLRAEDTAVYYCARRGLLLDYWGQGTTVTVSSASTKGPSVFPLAPLESSGSDIQMTQSPSSLSASLGDRATITCRASKTVSTSSYSYMHWYQQKPGQPPKLLIKYASYLESGVPSRFSGSGSGTDFTLTISSLQPEDAATYYCQHSREFPWTFGGGTKVEIKRADAAPGGGGSGGGGSGGGGSEVQLVESGGGLVQPGGSLRLSCAASGFTFSNYGMHWVRQAPGKGLEWVSYISSGSSTIYYADSVKGRFTISRDNAKNSLYLQMNSLRAEDTAVYYCARRGLLLDYWGQGTTVTVSS

Columns and labels:
[1] = tested on: A549 lung cancer cells; test: Protein L immunostain of variant 13 nuclear penetration with nuclear import inhibitors, A549 cells; type: cell-based; conditions: 10 μM variant 13 co-incubated with 0, 10, 25, or 50 μM inhibitor
Protocol: (§1) For all experiments, cells were cultivated overnight to allow for attachment, followed by pretreatment with either control medium (absence of inhibitor), or medium containing inhibitor for durations previously-reported in the literature (see Table 1, below).
(§2) For endocytosis inhibition experiments, cells were cultivated in serum-free medium containing 1% v/v BSA to deplete endogenous serum levels. Following preincubation with inhibitors, cells were treated with either control medium or 10 μM variant 13, and the same dose of small molecule inhibitor for a further 30 minutes. For all experiments, cells were washed thrice, followed by immediate fixation with pre-chilled ice-cold ethanol. Subsequently, treated cells were probed using a protein L immunodetection approach to probe variant 13 nuclear uptake (Rattray et al., Biochem Biophys Res Commun 496, 858-864 (2018)). All monolayers were immediately imaged following color development on an Evos Fl microscope.
(§3) DLD-1 and A549 cells were treated with 10 μM variant 13 co-incubated with 0, 10, 25, or 50 μM concentrations of ivermectin. Relative intensity of protein L nuclear staining as compared to amount of stain in cells treated without ivermectin was also quantified by ImageJ.
(§4) DLD-1 cells and A549 cells were treated with 10 μM variant 13 co-incubated with 0, 10, 25, or 50 μM concentrations of importazole and then immunostained for protein L.
(§5) DLD-1 cells and A549 cells were treated with 10 μM variant 13 co-incubated with 0, 10, 25, or 50 μM concentrations of mifepristone and then immunostained for protein L.

[2] = tested on: DLD1 cells; test: SLE sera nuclear import with nuclear import inhibitors; type: cell-based; conditions: pre- and co-treatment with inhibitor
Protocol: DLD1 cells were pre-treated with either control media, or media containing nuclear import inhibitors for four hours. Subsequent co-treatment with inhibitor and patient SLE serum (diluted 1:50) was performed for one hour at 37° C. Following treatment, cells were fixed, blocked and probed with an alkaline-phosphatase anti-human IgG primary antibody overnight (Fisher Scientific). Cell monolayers were washed, and color developed using NBT/BCIP reagent (Fisher Scientific) for the same duration across all experiments. Following chromogen color development, all monolayers were washed, and brightfield images acquired immediately on an Evos Fl microscope.

[3] = tested on: DLD1 cancer cells; test: Uptake of rhodamine-labeled variant 13 into live DLD1 cells; type: cell-based; conditions: 50 μM importazole
Protocol: Live DLD1 cancer cells were treated with control or rhodamine-labeled variant 13 (Rh-variant 13)+/−50 μM importazole and were then visualized under light and fluorescence microscopy.

[4] = tested on: DLD1 colon cancer cells; test: Protein L immunostain of variant 13 nuclear penetration with nuclear import inhibitors, DLD1 cells; type: cell-based; conditions: 10 μM variant 13 co-incubated with 0, 10, 25, or 50 μM inhibitor
Protocol: as §1, §2, §3, §4, §5

[5] = tested on: cell nuclei; conditions: known anti-DNA autoantibodies; cited from earlier work
[6] = tested on: DLD1 cells; test: Nuclear penetration of scleroderma autoantibody SSC and effect of ivermectin; type: cell-based
Excerpt: In addition to SLE, cell-penetrating autoantibodies are detected in other autoimmune diseases such as scleroderma. […] SSC was expressed in and purified from HEK293T cells. […] Ivermectin inhibited the nuclear uptake of SSC, confirming that ivermectin can modulate the nuclear-penetrating activity of autoantibodies from multiple autoimmune diseases.

[7] = tested on: MCF7 breast cancer cells; test: Uptake of rhodamine-labeled variant 13 into live MCF7 cells; type: cell-based; conditions: 50 μM ivermectin
Protocol: Live MCF7 breast cancer cells were treated with control or rhodamine-labeled variant 13 (Rh-variant 13)+/−50 μM ivermectin and were then visualized under light and fluorescence microscopy. Ivermectin inhibited cellular/nuclear uptake of Rh-variant 13.

[8] = tested on: cell nuclei; test: Nuclear penetration of humanized 3E10 variants compared with 3E10 (D31N) di-scFv; type: cell-based; conditions: for Nuclear localizing?: humanized 3E10 variants
Excerpt: A range of humanized 3E10 variants were generated with subtle differences in framework and CDR sequences.

[9] = biological target: T1, Importin-β1 (KPNB1) (Homo sapiens, UniProt Q14974); test: Variant 13 nuclear penetration after siRNA knockdown of importin β1 in DLD1 cells; type: cell-based; conditions: 10 μM variant 13 for 30 minutes, n=100 cells per treatment
T1 construct: endogenous in cells; host or cells: DLD1 cells
T1 sequence (Q14974 whole entry): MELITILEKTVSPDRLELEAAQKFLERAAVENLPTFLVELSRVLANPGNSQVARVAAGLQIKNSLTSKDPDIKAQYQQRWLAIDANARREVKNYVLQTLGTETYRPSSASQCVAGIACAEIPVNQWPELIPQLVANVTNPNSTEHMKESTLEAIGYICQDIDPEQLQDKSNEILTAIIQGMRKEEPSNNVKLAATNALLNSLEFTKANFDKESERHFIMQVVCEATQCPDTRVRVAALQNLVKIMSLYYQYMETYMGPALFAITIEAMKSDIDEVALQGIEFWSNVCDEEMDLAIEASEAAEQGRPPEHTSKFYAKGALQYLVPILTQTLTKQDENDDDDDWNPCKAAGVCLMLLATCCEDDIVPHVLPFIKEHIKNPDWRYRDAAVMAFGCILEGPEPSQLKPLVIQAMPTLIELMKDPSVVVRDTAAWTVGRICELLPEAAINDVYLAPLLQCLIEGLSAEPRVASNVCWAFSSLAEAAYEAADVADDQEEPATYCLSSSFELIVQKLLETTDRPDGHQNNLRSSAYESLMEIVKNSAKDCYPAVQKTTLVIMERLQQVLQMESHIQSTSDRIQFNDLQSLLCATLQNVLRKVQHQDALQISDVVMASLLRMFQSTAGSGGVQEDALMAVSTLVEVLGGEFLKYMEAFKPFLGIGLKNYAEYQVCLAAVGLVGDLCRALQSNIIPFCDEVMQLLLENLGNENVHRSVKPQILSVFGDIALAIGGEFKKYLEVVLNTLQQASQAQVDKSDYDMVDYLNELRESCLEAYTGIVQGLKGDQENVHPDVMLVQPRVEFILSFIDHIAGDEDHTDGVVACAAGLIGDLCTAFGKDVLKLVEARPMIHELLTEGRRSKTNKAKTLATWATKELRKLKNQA
Protocol: Importin-β1 (KPNB1) knockdown in DLD1 cells were generated using control (D-001206-14-05) and KPNB1 (importin β1, M-017523-01-0005) siRNA (Dharmacon). DLD1 cells were seeded into 24-well (western blot) or 96-well plates (cell penetration assays) overnight. Cell monolayers were transfected with siRNA, followed by media replacement at 24 hours, and evaluation at multiple time points post-transfection. Importin (31 expression was then evaluated by western blotting of cell lysates.
Knockdown of importin β1 in DLD1 cells by siRNA was next performed to further probe the role of this pathway in modulating variant 13 nuclear localization.

Molecule | nuclear penetration by variant 13 [1] | nuclear uptake of ANAs in SLE-19 [2] | nuclear penetration by variant 13 [4] | nuclear penetration compared to murine 3E10 (D31N) di-scFv prototype [8] | Nuclear localizing? [8] | also measured
CC(Nc1nc(N2CCCC2)nc2ccccc12)c1ccccc1 (stereo not drawn) [importazole] | reduction | inhibit nuclear uptake of ANAs in SLE-19 in a dose-dependent manner | reduction |  |  | nuclear uptake of rhodamine-labeled variant 13 [3]: inhibited
CC#C[C@]1(O)CC[C@H]2[C@@H]3CCC4=CC(=O)CCC4=C3[C@@H](c3ccc(N(C)C)cc3)C[C@@]21C [mifepristone] | reduction | inhibit nuclear uptake of ANAs in SLE-19 in a dose-dependent manner | reduction |  |  | 
3E10: murine lupus anti-DNA monoclonal antibody produced by ATCC Accession No. PTA 2439 hybridoma [Variant 3E10] |  |  |  |  |  | Nuclear localizing? [5]: Yes
ivermectin | dose-dependent reduction |  | dose-dependent reduction |  |  | nuclear staining / nuclear uptake of ANAs in SLE-4, 8, 9, and 19 ([2]; serum diluted 1:50): reduced the nuclear staining; also recorded: blocked; nuclear uptake of SSC [6]: inhibited; cellular/nuclear uptake of rhodamine-labeled variant 13 [7]: inhibited
B1 |  |  |  | penetrated nuclei very well | Yes | 
B2 |  |  |  | penetrated nuclei very well | Yes | variant 13 nuclear signal in importin β1 knockdown cells compared to cells with intact importin β1 [9]: significant reduction
